# Calls of active or inactive are those of the source. The calls are words filed in the database; no cut-off is given here.
# Biological target: T1, Free fatty acid receptor 1 (Homo sapiens, UniProt O14842)
# Test: Agonist activity at human GPR40 by FLIPR assay in presence of 1% BSA
# Type: functional
# Conditions: read-out: EC50
# T1 sequence (O14842 whole entry): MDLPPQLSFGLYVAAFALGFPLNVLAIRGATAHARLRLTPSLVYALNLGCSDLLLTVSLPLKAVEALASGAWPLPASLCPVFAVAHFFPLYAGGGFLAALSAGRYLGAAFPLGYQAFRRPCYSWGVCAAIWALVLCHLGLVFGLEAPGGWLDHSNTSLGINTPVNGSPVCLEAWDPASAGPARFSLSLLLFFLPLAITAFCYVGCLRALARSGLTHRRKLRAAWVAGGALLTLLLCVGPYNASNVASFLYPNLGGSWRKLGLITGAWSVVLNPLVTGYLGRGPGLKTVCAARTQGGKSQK
row,SMILES,EC50 [nM]
1,Cc1cc(C)cc(Oc2ccc(CC3SC(=O)NC3=O)cc2)c1 (stereo not drawn),96
2,O=C1NC(=O)C(Cc2ccc(Oc3ccccc3)cc2)S1 (stereo not drawn),307
3,O=C1NC(=O)C(Cc2ccc(Oc3ccc(C(F)(F)F)cc3Cl)cc2)S1 (stereo not drawn),78
4,O=C1NC(=O)C(Cc2ccc(Oc3ccc(Cl)cc3Cl)cc2C(F)(F)F)S1 (stereo not drawn),88
5,Cc1cc(Oc2ncc(C(F)(F)F)cc2Cl)ccc1CC1SC(=O)NC1=O (stereo not drawn),10
6,Cc1cc(Oc2ccc(CC3SC(=O)NC3=O)cc2)cc(C)c1C#N (stereo not drawn),120
7,O=C1NC(=O)C(Cc2ccc(Oc3cccc(C(F)(F)F)n3)cc2)S1 (stereo not drawn),1630
8,O=C1NC(=O)C(Cc2ccc(/C=C/c3ccccc3)cc2)S1 (stereo not drawn),2090
9,O=C1NC(=O)C(Cc2ccc(OCc3ccccc3)cc2)S1 (stereo not drawn),6180
10,O=C1NC(=O)C(Cc2ccc(Oc3cccc4ccccc34)cc2)S1 (stereo not drawn),135
11,O=C1NC(=O)C(Cc2ccc(Oc3cc(Cl)cc(Cl)c3)cc2)S1 (stereo not drawn),207
12,Cc1ccc(C)c(Oc2ccc(CC3SC(=O)NC3=O)cc2)c1 (stereo not drawn),238
13,O=C1NC(=O)C(Cc2ccc(Oc3ccc(Cl)cc3)cc2)S1 (stereo not drawn),240
14,O=C1NC(=O)C(Cc2ccc(Oc3ccc(Cl)cn3)cc2)S1 (stereo not drawn),1870
15,Cc1cccc(Oc2ccc(CC3SC(=O)NC3=O)cc2)n1 (stereo not drawn),2620
16,Cc1cc(C(F)(F)F)cc(Oc2ccc(CC3SC(=O)NC3=O)cc2)n1 (stereo not drawn),218
17,Cc1ccnc(Oc2ccc(CC3SC(=O)NC3=O)cc2)c1 (stereo not drawn),4280
18,COc1cc(Oc2ncc(C(F)(F)F)cc2Cl)ccc1CC1SC(=O)NC1=O (stereo not drawn),13800
19,COc1cc(Oc2ccc(Cl)cc2Cl)ccc1CC1SC(=O)NC1=O (stereo not drawn),1410
20,O=C1NC(=O)C(Cc2ccc(Cc3ccccc3)cc2)S1 (stereo not drawn),9280
21,Cc1cccnc1Oc1ccc(CC2SC(=O)NC2=O)cc1 (stereo not drawn),1090
22,O=C1NC(=O)C(Cc2ccc(Sc3ccccc3)cc2)S1 (stereo not drawn),5060
23,O=C1NC(=O)C(Cc2ccc(Oc3ncc(C(F)(F)F)cc3Cl)c3ccccc23)S1 (stereo not drawn),23600
24,O=C1NC(=O)C(Cc2cccc(Oc3ccccc3)c2)S1 (stereo not drawn),4700
25,O=C1NC(=O)C(Cc2ccc(C(=O)c3ccccc3)cc2)S1 (stereo not drawn),5300
26,O=C1NC(=O)C(Cc2ccc(-c3ccccc3)cc2)S1 (stereo not drawn),2220

row,SMILES,EC50 [nM]
1,O=C1NC(=O)C(Cc2ccc(Oc3ncc(C(F)(F)F)cc3Cl)cc2)S1 (stereo not drawn),69
2,Cc1ccc(Oc2ccc(CC3SC(=O)NC3=O)cc2)nc1 (stereo not drawn),4470
3,O=C1NC(=O)C(Cc2ccc(Oc3ncc(C(F)(F)F)cc3Cl)cc2Cl)S1 (stereo not drawn),26
4,Cc1ccc(Oc2ccc(CC3SC(=O)NC3=O)cc2)cc1C (stereo not drawn),727
5,Cc1cccc(Oc2ccc(CC3SC(=O)NC3=O)cc2)c1 (stereo not drawn),203
6,Cc1ccccc1Oc1ccc(CC2SC(=O)NC2=O)cc1 (stereo not drawn),124
7,Cc1cccc(Oc2ccc(CC3SC(=O)NC3=O)cc2)c1C (stereo not drawn),334
8,Cc1cc(Oc2ccc(CC3SC(=O)NC3=O)cc2)nc(C(F)(F)F)c1 (stereo not drawn),688
9,O=C1NC(=O)C(Cc2ccc(Oc3cccc(Cl)c3)cc2)S1 (stereo not drawn),318
10,O=C1NC(=O)C(Cc2ccc(Oc3ncc(Cl)cc3Cl)cc2Cl)S1 (stereo not drawn),63
11,Cc1ccc(Oc2ccc(CC3SC(=O)NC3=O)cc2)cc1 (stereo not drawn),547
12,O=C1NC(=O)C(Cc2ccc(Oc3ccc(C(F)(F)F)cn3)cc2)S1 (stereo not drawn),558
13,O=C1NC(=O)C(Cc2ccccc2Oc2ccccc2)S1 (stereo not drawn),11300
14,Cc1cc(Oc2ccc(C(F)(F)F)cc2Cl)ccc1CC1SC(=O)NC1=O (stereo not drawn),18
15,O=C1NC(=O)C(Cc2ccc(Oc3ncc(Cl)cc3Cl)cc2)S1 (stereo not drawn),90
16,O=C1CC(Cc2ccc(Oc3ccc(Cl)cc3Cl)cc2)C(=O)N1 (stereo not drawn),6450
17,O=C1NC(=O)C(Cc2ccc(CCc3ccccc3)cc2)S1 (stereo not drawn),1080
18,O=C1NC(=O)C(Cc2ccc(Oc3ccc(F)cc3)cc2)S1 (stereo not drawn),480
19,O=C1NC(=O)C(Cc2ccc(Oc3ncccc3C(F)(F)F)cc2)S1 (stereo not drawn),2290
20,O=C1NC(=O)C(Cc2ccc(Oc3ccc(Cl)cc3Cl)cc2)S1 (stereo not drawn),101
21,Cc1ccc(Oc2ccc(CC3SC(=O)NC3=O)cc2)c(C)c1 (stereo not drawn),121
22,Cc1cc(Oc2ncc(C(F)(F)F)cc2Cl)cc(C)c1CC1SC(=O)NC1=O (stereo not drawn),5450
23,O=C1NC(=O)C(Cc2ccc(Oc3cc4ccccc4cn3)cc2)S1 (stereo not drawn),144
24,O=C1NC(=O)C(Cc2ccc(Oc3ccc(Cl)cc3Cl)cc2)O1 (stereo not drawn),4020
25,O=C1NC(=O)C(Cc2ccc(Oc3ccccc3Cl)cc2)S1 (stereo not drawn),1190
26,O=C1NC(=O)C(Cc2ccc(Oc3cc(C(F)(F)F)ccn3)cc2)S1 (stereo not drawn),237

# Same assay, conditions: read-out: pEC50 (converted)
row,SMILES,EC50 [nM]
1,Cc1nc(-c2ccc(C(F)(F)F)cc2)sc1CNc1ccc(C2CC2C(=O)O)cc1 (stereo not drawn),10
2,O=C(O)CCc1ccc(NCc2cccc(Oc3ccccc3)c2)cc1 [GW9508],100

# System: not listed separately
# Test: Oral bioavailability in mouse at 2 mg/kg
# Type: ADME, organism-based
# Conditions: in vivo
row,SMILES,bioavailability [%]
1,Cc1cc(Oc2ncc(C(F)(F)F)cc2Cl)ccc1CC1SC(=O)NC1=O (stereo not drawn),100

# System: not listed separately
# Test: Clearance in mouse at 2 mg/kg
# Type: ADME, organism-based
# Set-up: dose 2 mg/kg
# Conditions: in vivo
row,SMILES,clearance [mL/min/kg]
1,Cc1cc(Oc2ncc(C(F)(F)F)cc2Cl)ccc1CC1SC(=O)NC1=O (stereo not drawn),1.9

# System: not listed separately
# Test: Half life in mouse at 2 mg/kg
# Type: ADME, organism-based
# Set-up: dose 2 mg/kg
# Conditions: in vivo
row,SMILES,half-life [h]
1,Cc1cc(Oc2ncc(C(F)(F)F)cc2Cl)ccc1CC1SC(=O)NC1=O (stereo not drawn),5.1

# System: not listed separately
# Test: Tmax in mouse at 2 mg/kg
# Type: ADME, organism-based
# Set-up: dose 2 mg/kg
# Conditions: in vivo
row,SMILES,Tmax [h]
1,Cc1cc(Oc2ncc(C(F)(F)F)cc2Cl)ccc1CC1SC(=O)NC1=O (stereo not drawn),3

# System: not listed separately
# Test: Cmax in mouse at 2 mg/kg
# Type: ADME, organism-based
# Set-up: dose 2 mg/kg
# Conditions: in vivo
row,SMILES,Cmax [µM]
1,Cc1cc(Oc2ncc(C(F)(F)F)cc2Cl)ccc1CC1SC(=O)NC1=O (stereo not drawn),1.4

# System: Mus musculus
# Test: Reduction in glucose excursion in po dosed lean mouse pretreated 1 hr before dextrose challenge by intraperitoneal glucose tolerance test
# Type: functional, organism-based
# Conditions: not given
row,SMILES,Activity
1,Cc1cc(Oc2ncc(C(F)(F)F)cc2Cl)ccc1CC1SC(=O)NC1=O (stereo not drawn),Dose-dependent effect

# System: Mus musculus
# Test: Reduction in glucose excursion in lean mouse assessed as inhibition of glucose AUC at 30 mg/kg, po pretreated 1 hr before dextrose challenge by intraperitoneal glucose tolerance test
# Type: functional
# Set-up: scale not given: the % may be the effect or the level left
# Conditions: not given
row,SMILES,Activity [%]
1,Cc1cc(Oc2ncc(C(F)(F)F)cc2Cl)ccc1CC1SC(=O)NC1=O (stereo not drawn),73

# System: not listed separately
# Test: Plasma concentration in lean mouse at 30 mg/kg, po pretreated 1 hr before dextrose challenge measured after 2 hrs
# Type: ADME, organism-based
# Set-up: dose 30 mg/kg, route oral
# Conditions: not given
row,SMILES,concentration at 2 h [µM]
1,Cc1cc(Oc2ncc(C(F)(F)F)cc2Cl)ccc1CC1SC(=O)NC1=O (stereo not drawn),37

# System: Mus musculus
# Test: Reduction in glucose excursion in GPR40-/- lean mouse assessed as inhibition of glucose AUC at 30 mg/kg, po pretreated 1 hr before dextrose challenge by intraperitoneal glucose tolerance test
# Type: functional, organism-based
# Set-up: dose 30 mg/kg
# Conditions: not given
row,SMILES,Activity
1,Cc1cc(Oc2ncc(C(F)(F)F)cc2Cl)ccc1CC1SC(=O)NC1=O (stereo not drawn),inactive

# Biological target: T1, Free fatty acid receptor 1
# Test: Agonist activity at human GPR40 at 40 uM by FLIPR assay in presence of 1% BSA
# Type: functional
# Conditions: not given
row,SMILES,Activity [%]
1,O=C1CCC(Cc2ccc(Oc3ccc(Cl)cc3Cl)cc2)C(=O)N1 (stereo not drawn),6
2,O=C1COC(Cc2ccc(Oc3ccc(Cl)cc3Cl)cc2)C(=O)N1 (stereo not drawn),23
3,CN1C(=O)NC(=O)C1Cc1ccc(Oc2ccc(Cl)cc2Cl)cc1 (stereo not drawn),2
4,O=C1NC(=O)C(Cc2ccc(Oc3ccc(C(F)(F)F)cc3Cl)c3ccccc23)S1 (stereo not drawn),46

# System: Mus musculus
# Test: Reduction in glucose excursion in lean mouse at 3 to 100 mg/kg, po pretreated 1 hr before dextrose challenge by intraperitoneal glucose tolerance test
# Conditions: not given
row,SMILES,Activity
1,Cc1cc(Oc2ncc(C(F)(F)F)cc2Cl)ccc1CC1SC(=O)NC1=O (stereo not drawn),Active
